Source: US9023821B2, “Use of MicroRNA for treating diseases associated with a dysfunction of the cilia in multiciliated epithelial cells” (Centre National de la Recherche Scientifique, priority 2009, dated 2015)

Legend:
[1] = system: human airway epithelial cells (HAECs); assay: High-throughput sequencing (HTS) of miRNAs at four stages of differentiation of HAECs; conditions: for Modulation (ratio of the level of intensity of expression in log2 in two stages of differentiation) measured by high-throughput sequencing, D7 − D0 / Modulation (ratio of the level of intensity of expression in log2 in two stages of differentiation) measured by high-throughput sequencing, FC − D7 / Modulation (ratio of the level of intensity of expression in log2 in two stages of differentiation) measured by high-throughput sequencing, WD − D0 / Modulation (ratio of the level of intensity of expression in log2 in two stages of differentiation) measured by high-throughput sequencing, WD − FC / Level of intensity of expression in log2 measured by high-throughput sequencing, D0 / Level of intensity of expression in log2 measured by high-throughput sequencing, D7 / Level of intensity of expression in log2 measured by high-throughput sequencing, FC / Level of intensity of expression in log2 measured by high-throughput sequencing, WD: Table VI; for Level of intensity of expression in log2 At the differentiated stage (WD) measured in HTS: healthy human airway epithelial tissue; for Level of intensity of expression in log2 measured by high-throughput sequencing, D0: stage D0; for Level of intensity of expression in log2 measured by high-throughput sequencing, D7: stage D7; for Level of intensity of expression in log2 measured by high-throughput sequencing, FC: stage FC; for Level of intensity of expression in log2 At the differentiated stage (WD) measured in HTS / Level of intensity of expression in log2 measured by high-throughput sequencing, WD: stage WD
Procedure, shortened: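 Small-RNA libraries from differentiating HAECs (ALI-D0 to ALI-WD) were built by ligation-based SOLiD chemistry, size-selected and sequenced. Strand counts were normalized per million reads, converted to percentage abundance, and filtered on adjusted P-value below 0.05.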

[2] = system: human airway epithelial cells (HAECs); assay: Agilent miRNA chips, miRNA expression at four stages of differentiation of HAECs; conditions: for Modulation (ratio of the level of intensity of expression in log2 in two stages of differentiation) measured with the Agilent chips, D7 − D0 / Modulation (ratio of the level of intensity of expression in log2 in two stages of differentiation) measured with the Agilent chips, FC − D7 / Modulation (ratio of the level of intensity of expression in log2 in two stages of differentiation) measured with the Agilent chips, WD − D0 / Modulation (ratio of the level of intensity of expression in log2 in two stages of differentiation) measured with the Agilent chips, WD − FC / Level of intensity of expression in log2 measured with the Agilent chips, D0 / Level of intensity of expression in log2 measured with the Agilent chips, D7 / Level of intensity of expression in log2 measured with the Agilent chips, FC / Level of intensity of expression in log2 measured with the Agilent chips, WD: Table VI; for Modulation (ratio of the level of intensity of expression in log2 at two stages of differentiation), FC − D7 / Modulation (ratio of the level of intensity of expression in log2 at two stages of differentiation), WD − FC: Agilent miRNA chips, Table V; for Level of intensity of expression in log2 measured with the Agilent chips, D0: stage D0; for Level of intensity of expression in log2 measured with the Agilent chips, D7: stage D7; for Level of intensity of expression in log2 measured with the Agilent chips, FC: stage FC; for Level of intensity of expression in log2 measured with the Agilent chips, WD: stage WD
Procedure, shortened: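 To benchmark sequencing, the microRNAome was also profiled by hybridizing labelled RNA from identical patient samples to v2 arrays with miRBase v.12.0 human content (866 miRNAs) and 89 viral miRNAs.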

[3] = system: basal cells and pyramidal cells of the airway epithelium; assay: miRNA expression in sorted basal cells versus pyramidal cells (ciliated + secretory), HTS and Agilent chips; set-up: species or system human; conditions: for Modulation of expression of the miRNAs in pyramidal cells (323(−)) relative to basal cells 323(+): HTS and Agilent chips; for Intensity of the level of expression in log2 in pyramidal cells (323(−)): pyramidal cells (ciliated + secretory)
Procedure, shortened: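 Epithelium dissociated from nasal polyps is held 30 min in PBS-BSA-EDTA, then labelled 20 min at 4° C for CD151 and tissue factor. After DAPI staining, live single cells are sorted into marker-double-positive and double-negative fractions, and sort purity and identity are verified. Total RNA then undergoes miRNA profiling on arrays or by sequencing.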

hsa-miR-148a: human miRNA, SEQ ID No. 7 (UCAGUGCACUACAGAACUUUGU; expressed or natural sequence; listed as Homo sapiens)
Modulation (ratio of the level of intensity of expression in log2 in two stages of differentiation) measured by high-throughput sequencing, D7 − D0 [1]: 1.31 log2 | Modulation (ratio of the level of intensity of expression in log2 in two stages of differentiation) measured by high-throughput sequencing, FC − D7 [1]: −0.28 log2 | Modulation (ratio of the level of intensity of expression in log2 in two stages of differentiation) measured by high-throughput sequencing, WD − D0 [1]: 1.93 log2 | Modulation (ratio of the level of intensity of expression in log2 in two stages of differentiation) measured by high-throughput sequencing, WD − FC [1]: 0.91 log2 | Level of intensity of expression in log2 At the differentiated stage (WD) measured in HTS [1]: 8.97 log2 | Level of intensity of expression in log2 measured by high-throughput sequencing, D0 [1]: 7.04 log2 | Level of intensity of expression in log2 measured by high-throughput sequencing, D7 [1]: 8.34 log2 | Level of intensity of expression in log2 measured by high-throughput sequencing, FC [1]: 8.06 log2 | Level of intensity of expression in log2 measured by high-throughput sequencing, WD [1]: 8.97 log2 | Modulation (ratio of the level of intensity of expression in log2 in two stages of differentiation) measured with the Agilent chips, D7 − D0 [2]: 2.06 log2 | Modulation (ratio of the level of intensity of expression in log2 at two stages of differentiation), FC − D7 [2]: −0.50 log2 | Modulation (ratio of the level of intensity of expression in log2 in two stages of differentiation) measured with the Agilent chips, FC − D7 [2]: −0.50 log2 | Modulation (ratio of the level of intensity of expression in log2 in two stages of differentiation) measured with the Agilent chips, WD − D0 [2]: 1.60 log2 | Modulation (ratio of the level of intensity of expression in log2 at two stages of differentiation), WD − FC [2]: 0.04 log2 | Modulation (ratio of the level of intensity of expression in log2 in two stages of differentiation) measured with the Agilent chips, WD − FC [2]: 0.04 log2 | Level of intensity of expression in log2 measured with the Agilent chips, D0 [2]: 7.35 log2 | Level of intensity of expression in log2 measured with the Agilent chips, D7 [2]: 9.41 log2 | Level of intensity of expression in log2 measured with the Agilent chips, FC [2]: 8.91 log2 | Level of intensity of expression in log2 measured with the Agilent chips, WD [2]: 8.95 log2 | Modulation of expression of the miRNAs in pyramidal cells (323(−)) relative to basal cells 323(+) [3]: −1.76 | Intensity of the level of expression in log2 in basal cells (323(+)) [3]: 7.14 log2 | Intensity of the level of expression in log2 in pyramidal cells (323(−)) [3]: 5.39 log2

hsa-miR-151-5p: human miRNA, SEQ ID No. 8 (UCGAGGAGCUCACAGUCUAGU; expressed or natural sequence; listed as Homo sapiens)
Modulation (ratio of the level of intensity of expression in log2 in two stages of differentiation) measured by high-throughput sequencing, D7 − D0 [1]: 1.13 log2 | Modulation (ratio of the level of intensity of expression in log2 in two stages of differentiation) measured by high-throughput sequencing, FC − D7 [1]: −0.02 log2 | Modulation (ratio of the level of intensity of expression in log2 in two stages of differentiation) measured by high-throughput sequencing, WD − D0 [1]: 1.02 log2 | Modulation (ratio of the level of intensity of expression in log2 in two stages of differentiation) measured by high-throughput sequencing, WD − FC [1]: −0.09 log2 | Level of intensity of expression in log2 At the differentiated stage (WD) measured in HTS [1]: 10.22 log2 | Level of intensity of expression in log2 measured by high-throughput sequencing, D0 [1]: 9.20 log2 | Level of intensity of expression in log2 measured by high-throughput sequencing, D7 [1]: 10.33 log2 | Level of intensity of expression in log2 measured by high-throughput sequencing, FC [1]: 10.31 log2 | Level of intensity of expression in log2 measured by high-throughput sequencing, WD [1]: 10.22 log2 | Modulation (ratio of the level of intensity of expression in log2 in two stages of differentiation) measured with the Agilent chips, D7 − D0 [2]: 1.83 log2 | Modulation (ratio of the level of intensity of expression in log2 at two stages of differentiation), FC − D7 [2]: −0.37 log2 | Modulation (ratio of the level of intensity of expression in log2 in two stages of differentiation) measured with the Agilent chips, FC − D7 [2]: −0.37 log2 | Modulation (ratio of the level of intensity of expression in log2 in two stages of differentiation) measured with the Agilent chips, WD − D0 [2]: 1.46 log2 | Modulation (ratio of the level of intensity of expression in log2 at two stages of differentiation), WD − FC [2]: 0.00 log2 | Modulation (ratio of the level of intensity of expression in log2 in two stages of differentiation) measured with the Agilent chips, WD − FC [2]: 0.00 log2 | Level of intensity of expression in log2 measured with the Agilent chips, D0 [2]: 6.71 log2 | Level of intensity of expression in log2 measured with the Agilent chips, D7 [2]: 8.54 log2 | Level of intensity of expression in log2 measured with the Agilent chips, FC [2]: 8.17 log2 | Level of intensity of expression in log2 measured with the Agilent chips, WD [2]: 8.17 log2 | Modulation of expression of the miRNAs in pyramidal cells (323(−)) relative to basal cells 323(+) [3]: −0.73 | Intensity of the level of expression in log2 in basal cells (323(+)) [3]: 7.24 log2 | Intensity of the level of expression in log2 in pyramidal cells (323(−)) [3]: 6.51 log2

hsa-miR-181a: human miRNA, SEQ ID No. 12 (AACAUUCAACGCUGUCGGUGAGU; expressed or natural sequence; listed as Homo sapiens)
Modulation (ratio of the level of intensity of expression in log2 in two stages of differentiation) measured by high-throughput sequencing, D7 − D0 [1]: 0.00 log2 | Modulation (ratio of the level of intensity of expression in log2 in two stages of differentiation) measured by high-throughput sequencing, FC − D7 [1]: 0.00 log2 | Modulation (ratio of the level of intensity of expression in log2 in two stages of differentiation) measured by high-throughput sequencing, WD − D0 [1]: 0.00 log2 | Modulation (ratio of the level of intensity of expression in log2 in two stages of differentiation) measured by high-throughput sequencing, WD − FC [1]: 0.00 log2 | Level of intensity of expression in log2 At the differentiated stage (WD) measured in HTS [1]: 0.01 log2 | Level of intensity of expression in log2 measured by high-throughput sequencing, D0 [1]: 0.01 log2 | Level of intensity of expression in log2 measured by high-throughput sequencing, D7 [1]: 0.01 log2 | Level of intensity of expression in log2 measured by high-throughput sequencing, FC [1]: 0.01 log2 | Level of intensity of expression in log2 measured by high-throughput sequencing, WD [1]: 0.01 log2 | Modulation (ratio of the level of intensity of expression in log2 in two stages of differentiation) measured with the Agilent chips, D7 − D0 [2]: 1.41 log2 | Modulation (ratio of the level of intensity of expression in log2 at two stages of differentiation), FC − D7 [2]: −0.84 log2 | Modulation (ratio of the level of intensity of expression in log2 in two stages of differentiation) measured with the Agilent chips, FC − D7 [2]: −0.84 log2 | Modulation (ratio of the level of intensity of expression in log2 in two stages of differentiation) measured with the Agilent chips, WD − D0 [2]: 0.20 log2 | Modulation (ratio of the level of intensity of expression in log2 at two stages of differentiation), WD − FC [2]: −0.37 log2 | Modulation (ratio of the level of intensity of expression in log2 in two stages of differentiation) measured with the Agilent chips, WD − FC [2]: −0.37 log2 | Level of intensity of expression in log2 measured with the Agilent chips, D0 [2]: 7.05 log2 | Level of intensity of expression in log2 measured with the Agilent chips, D7 [2]: 8.47 log2 | Level of intensity of expression in log2 measured with the Agilent chips, FC [2]: 7.62 log2 | Level of intensity of expression in log2 measured with the Agilent chips, WD [2]: 7.25 log2 | Modulation of expression of the miRNAs in pyramidal cells (323(−)) relative to basal cells 323(+) [3]: −2.29 | Intensity of the level of expression in log2 in basal cells (323(+)) [3]: 6.88 log2 | Intensity of the level of expression in log2 in pyramidal cells (323(−)) [3]: 4.59 log2
